Source: patent US4670265A, “Aloe emodin and other anthraquinones and anthraquinone-like compounds from plants virucidal against herpes simplex viruses” (priority 1984, dated 1987)

Tested on: HSV-1 (KOS strain)
Experiment: Plaque Reduction Assay (PRA) for anti-viral activity, HSV-1
Format: cell-based, herpes simplex virus type 1 (KOS strain)
Details: product of reduction of Aloe emodin
Method: The extract has a direct virucidal effect on HSV under the standardly accepted assay conditions employed. This effect is demonstrable by mixing the test extract directly with HSV and incubating the mixture for 15 minutes at 37° C., then diluting the mixture and assaying for the amount of viable HSV capable of producing plaques in an in vitro cell culture system. A plaque is defined as a visible, localized destruction of cells in culture produced by a single infectious virus particle or plaque forming unit and is the most sensitive assay in virology for quantitating viruses. Depending on the type and concentration of the test extract used, complete inactivation of HSV plaque forming units can be achieved in 15 minutes or less.
Material for testing was obtained from Aloe plants using either whole leaf homogenates, sap or gel. Other materials for testing included dried leaves of Aloe vera and Senna, dried bark of Frangula and Cascara, dried rhizomes of Rhubarb and a commercial preparation of Aloin. All samples were tested for anti-viral activity by a Plaque Reduction Assay (PRA) using monolayer cultures of Vero (African Green Monkey Kidney) cells grown in MEM+5% calf serum. […] After adsorption, the inoculum was removed, a methyl cellulose/MEM overlay medium was added and after three days incubation the number of plaques per dish counted and averaged. […]

Compound: O=C1c2ccccc2Cc2ccccc21 [anthrone]
- anti-viral activity (in words): loss of anti-viral activity
